The record followed here is PMC10477347, “O-methyltransferase-like enzyme catalyzed diazo installation in polyketide biosynthesis” (Nature Communications, 2023).

One assay concerns the target T1, AlpJ (Streptomyces ambofaciens, UniProt Q6VMI5).
T1 construct: pET28a, Ni-NTA purified from E. coli BL21(DE3); gene amplified from kinamycin BAC 3C2
T1 sequence (Q6VMI5 1-232): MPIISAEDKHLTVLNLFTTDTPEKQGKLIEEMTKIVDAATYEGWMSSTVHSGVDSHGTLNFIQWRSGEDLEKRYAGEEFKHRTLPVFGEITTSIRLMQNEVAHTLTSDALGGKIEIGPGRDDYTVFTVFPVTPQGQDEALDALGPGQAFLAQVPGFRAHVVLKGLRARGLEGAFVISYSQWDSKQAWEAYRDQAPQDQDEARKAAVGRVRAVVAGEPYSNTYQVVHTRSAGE
Briefly: HPLC of products […] and […] from one-pot reaction with AlpK. It is filed as biochemical. As to conditions: NADH, FAD, pH 7.5, 30 °C.

Another assay concerns the target T2, AlpH (Streptomyces ambofaciens, UniProt Q6VMJ4).
T2 construct: N-terminal His6-tagged, pET28a, E. coli BL21(DE3); homodimer in the apo crystal; gene amplified from kinamycin BAC 3C2
Briefly: surface plasmon resonance (Biacore 8K, AlpH immobilized on CM5). In kind it is binding. The source says: surface plasmon resonance (Biacore 8K, AlpH immobilized on CM5) on AlpH | Surface plasmon resonance analysis of AlpH and gluN2H3 also identified a specific interaction between them

Assay [1] concerns the target AlpH, O-methyltransferase-like protein from the kinamycin biosynthetic gene cluster. Briefly: crystal structure; apo-AlpH, hanging drop vapor diffusion at 16 °C; protein in 20 mM Tris-HCl pH 7.5, 100 mM NaCl, 1 mM DTT, 1 mM EDTA; reservoir 0.03 M citric acid, 0.07 M Bis-Tris propane pH 7.6, 20% PEG3350; molecular replacement, 1.87 Å.

T2 sequence (Q6VMJ4 entry or part of it): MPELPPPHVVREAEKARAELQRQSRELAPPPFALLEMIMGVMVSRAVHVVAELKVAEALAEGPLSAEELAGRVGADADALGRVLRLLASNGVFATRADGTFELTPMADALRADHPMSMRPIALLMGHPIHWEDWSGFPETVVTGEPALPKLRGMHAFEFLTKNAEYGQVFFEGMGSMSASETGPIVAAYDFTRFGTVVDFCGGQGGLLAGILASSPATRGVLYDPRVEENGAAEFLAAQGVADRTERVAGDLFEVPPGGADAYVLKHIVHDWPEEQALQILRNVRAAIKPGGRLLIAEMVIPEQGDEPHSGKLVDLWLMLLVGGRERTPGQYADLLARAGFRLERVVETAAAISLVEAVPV

For the molecule `Cc1cc(O)c2c3c(c(O)cc2c1)C(=O)c1c(O)cccc1C3=O` [DHR], at AlpJ, the “HPLC of products 1 and 6 from one-pot reaction with AlpK” value is “prepared in situ by incubating AlpJ and AlpK with DHR and NADH”. On to `NNC(=O)CC[C@H](N)C(=O)O` [gluN2H3], for which the Kd on AlpH came to 114 nM. As to “AlpH, O-methyltransferase-like protein from the kinamycin biosynthetic gene cluster (enzyme)”, in assay [1], the stoichiometry N is 2.
